{
  "source": "ChEMBL document CHEMBL5653631",
  "about": "“A Potent and Selective ULK1 Inhibitor Suppresses Autophagy and Sensitizes Cancer Cells to Nutrient Stress” (iScience, 2018)",
  "key": {"[1]": {"biological_target": "T1, Ephrin type-A receptor 1 (Homo sapiens) (UniProt P21709)", "T1 sequence (whole entry)": "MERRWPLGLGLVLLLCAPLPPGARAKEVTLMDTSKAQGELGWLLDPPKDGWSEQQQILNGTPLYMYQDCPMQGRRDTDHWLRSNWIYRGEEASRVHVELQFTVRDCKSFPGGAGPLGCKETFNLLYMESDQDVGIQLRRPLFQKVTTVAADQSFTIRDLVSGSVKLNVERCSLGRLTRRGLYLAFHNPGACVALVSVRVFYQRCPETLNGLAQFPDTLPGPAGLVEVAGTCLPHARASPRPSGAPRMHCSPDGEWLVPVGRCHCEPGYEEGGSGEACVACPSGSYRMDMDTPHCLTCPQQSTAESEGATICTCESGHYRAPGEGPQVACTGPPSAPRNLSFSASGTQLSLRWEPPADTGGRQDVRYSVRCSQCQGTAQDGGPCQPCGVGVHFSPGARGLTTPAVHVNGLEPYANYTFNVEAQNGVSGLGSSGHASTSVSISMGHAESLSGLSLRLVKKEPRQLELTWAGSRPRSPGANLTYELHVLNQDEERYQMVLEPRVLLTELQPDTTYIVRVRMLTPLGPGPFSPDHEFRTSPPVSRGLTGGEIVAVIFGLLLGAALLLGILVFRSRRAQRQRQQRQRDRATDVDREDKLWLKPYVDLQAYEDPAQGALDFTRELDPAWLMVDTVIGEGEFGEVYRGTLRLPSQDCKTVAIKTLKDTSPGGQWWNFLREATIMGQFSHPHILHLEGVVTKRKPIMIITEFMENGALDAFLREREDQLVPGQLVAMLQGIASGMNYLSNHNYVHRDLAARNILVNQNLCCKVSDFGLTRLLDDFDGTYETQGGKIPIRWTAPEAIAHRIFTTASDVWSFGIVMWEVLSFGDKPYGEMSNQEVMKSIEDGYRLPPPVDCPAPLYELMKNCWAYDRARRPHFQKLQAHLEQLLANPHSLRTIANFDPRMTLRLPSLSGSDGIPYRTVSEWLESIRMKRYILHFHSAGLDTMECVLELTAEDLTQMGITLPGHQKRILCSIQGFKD", "test": "Inhibition of human recombinant EphA1 at 40 nM in presence of ATP by radiometric assay relative to control"}, "[2]": {"biological_target": "T2, Mitogen-activated protein kinase kinase kinase 5 (Homo sapiens) (UniProt Q99683)", "T2 sequence (whole entry)": "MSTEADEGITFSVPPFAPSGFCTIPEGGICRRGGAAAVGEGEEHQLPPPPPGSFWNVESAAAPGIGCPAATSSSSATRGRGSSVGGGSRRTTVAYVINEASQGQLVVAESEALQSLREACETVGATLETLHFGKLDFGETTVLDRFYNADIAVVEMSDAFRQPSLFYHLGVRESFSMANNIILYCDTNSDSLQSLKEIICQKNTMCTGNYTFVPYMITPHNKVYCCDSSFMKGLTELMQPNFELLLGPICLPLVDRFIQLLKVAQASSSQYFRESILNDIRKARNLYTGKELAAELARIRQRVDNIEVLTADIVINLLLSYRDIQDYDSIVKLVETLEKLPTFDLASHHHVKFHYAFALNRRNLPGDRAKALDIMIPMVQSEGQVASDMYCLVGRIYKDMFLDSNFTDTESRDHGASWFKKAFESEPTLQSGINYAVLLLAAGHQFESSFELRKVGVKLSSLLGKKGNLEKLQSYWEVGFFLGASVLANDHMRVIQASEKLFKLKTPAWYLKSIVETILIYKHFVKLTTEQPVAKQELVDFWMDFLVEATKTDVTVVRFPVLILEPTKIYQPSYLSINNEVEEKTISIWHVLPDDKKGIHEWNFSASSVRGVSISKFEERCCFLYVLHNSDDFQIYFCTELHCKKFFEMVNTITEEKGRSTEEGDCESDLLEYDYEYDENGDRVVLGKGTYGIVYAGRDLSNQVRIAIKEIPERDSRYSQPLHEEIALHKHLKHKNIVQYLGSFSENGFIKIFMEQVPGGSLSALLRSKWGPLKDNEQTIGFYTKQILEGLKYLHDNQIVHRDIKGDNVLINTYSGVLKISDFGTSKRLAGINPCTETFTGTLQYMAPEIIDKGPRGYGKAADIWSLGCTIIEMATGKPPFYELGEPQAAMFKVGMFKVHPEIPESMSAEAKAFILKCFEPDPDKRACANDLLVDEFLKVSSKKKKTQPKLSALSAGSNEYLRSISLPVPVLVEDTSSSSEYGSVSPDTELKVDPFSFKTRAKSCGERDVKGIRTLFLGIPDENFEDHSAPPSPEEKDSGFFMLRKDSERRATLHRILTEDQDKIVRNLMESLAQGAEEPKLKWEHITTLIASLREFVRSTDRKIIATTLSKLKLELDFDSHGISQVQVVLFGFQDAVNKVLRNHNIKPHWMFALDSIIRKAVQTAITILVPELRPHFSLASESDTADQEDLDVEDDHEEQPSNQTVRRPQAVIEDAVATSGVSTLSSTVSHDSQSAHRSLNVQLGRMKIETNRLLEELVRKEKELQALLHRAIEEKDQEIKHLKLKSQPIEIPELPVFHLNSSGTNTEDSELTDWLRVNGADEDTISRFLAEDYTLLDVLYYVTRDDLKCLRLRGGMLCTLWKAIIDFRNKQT", "test": "Inhibition of human recombinant MAP3K5 at 500 nM related to control ULK1"}, "[3]": {"biological_target": "Serine/threonine-protein kinase 26 (Homo sapiens) (UniProt Q9P289)", "sequence (Q9P289 2-416 limits assumed)": "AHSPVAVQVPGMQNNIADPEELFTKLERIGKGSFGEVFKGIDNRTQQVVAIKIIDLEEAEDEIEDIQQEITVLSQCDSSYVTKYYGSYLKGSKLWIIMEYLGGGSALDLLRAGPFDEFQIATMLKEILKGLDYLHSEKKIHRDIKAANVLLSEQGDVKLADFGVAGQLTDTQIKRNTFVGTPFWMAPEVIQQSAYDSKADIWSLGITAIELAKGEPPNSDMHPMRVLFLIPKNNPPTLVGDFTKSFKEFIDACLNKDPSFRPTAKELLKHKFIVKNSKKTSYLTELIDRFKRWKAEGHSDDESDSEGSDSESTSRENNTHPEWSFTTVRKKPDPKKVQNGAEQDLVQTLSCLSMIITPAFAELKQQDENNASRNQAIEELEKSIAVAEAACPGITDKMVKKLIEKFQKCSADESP", "test": "Inhibition of human recombinant MST4 at 15 nM in presence of ATP by radiometric assay relative to control"}, "[4]": {"biological_target": "T3, Dual specificity mitogen-activated protein kinase kinase 6 (Homo sapiens) (UniProt P52564)", "T3 sequence (whole entry)": "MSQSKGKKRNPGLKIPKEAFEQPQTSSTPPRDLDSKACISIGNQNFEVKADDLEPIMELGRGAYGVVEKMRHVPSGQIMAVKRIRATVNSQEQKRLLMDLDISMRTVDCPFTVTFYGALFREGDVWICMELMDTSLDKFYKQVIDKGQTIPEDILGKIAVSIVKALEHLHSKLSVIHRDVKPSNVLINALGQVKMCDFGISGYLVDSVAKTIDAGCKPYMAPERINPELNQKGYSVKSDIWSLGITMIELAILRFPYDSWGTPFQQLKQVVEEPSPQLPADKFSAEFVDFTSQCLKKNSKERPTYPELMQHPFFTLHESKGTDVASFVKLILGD", "test": "Inhibition of human recombinant MAP2K6 at 15 nM in presence of ATP by radiometric assay relative to control"}, "[5]": {"biological_target": "Serine/threonine-protein kinase MAK (Homo sapiens) (UniProt P20794)", "sequence (P20794 whole entry, looked up)": "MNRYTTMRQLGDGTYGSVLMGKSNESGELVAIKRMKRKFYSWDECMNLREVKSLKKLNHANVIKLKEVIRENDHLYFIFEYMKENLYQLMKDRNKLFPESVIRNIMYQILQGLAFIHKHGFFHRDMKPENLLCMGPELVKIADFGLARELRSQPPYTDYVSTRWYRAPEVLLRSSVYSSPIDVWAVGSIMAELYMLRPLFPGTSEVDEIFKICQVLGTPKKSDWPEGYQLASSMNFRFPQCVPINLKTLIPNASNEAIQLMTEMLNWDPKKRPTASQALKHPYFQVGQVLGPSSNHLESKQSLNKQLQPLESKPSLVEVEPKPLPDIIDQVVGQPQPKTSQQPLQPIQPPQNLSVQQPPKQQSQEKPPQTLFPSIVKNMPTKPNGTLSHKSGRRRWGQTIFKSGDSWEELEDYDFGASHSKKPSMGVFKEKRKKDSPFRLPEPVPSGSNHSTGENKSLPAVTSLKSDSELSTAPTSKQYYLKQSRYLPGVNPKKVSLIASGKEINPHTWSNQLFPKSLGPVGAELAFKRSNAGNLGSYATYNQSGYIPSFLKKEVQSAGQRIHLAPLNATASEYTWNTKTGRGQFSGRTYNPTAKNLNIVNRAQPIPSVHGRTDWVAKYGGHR", "test": "Inhibition of human recombinant MAK at 15 nM in presence of ATP by radiometric assay relative to control"}, "[6]": {"biological_target": "Cyclin-dependent kinase 12 (Homo sapiens) (UniProt Q9NYV4)", "sequence (Q9NYV4 whole entry, looked up)": "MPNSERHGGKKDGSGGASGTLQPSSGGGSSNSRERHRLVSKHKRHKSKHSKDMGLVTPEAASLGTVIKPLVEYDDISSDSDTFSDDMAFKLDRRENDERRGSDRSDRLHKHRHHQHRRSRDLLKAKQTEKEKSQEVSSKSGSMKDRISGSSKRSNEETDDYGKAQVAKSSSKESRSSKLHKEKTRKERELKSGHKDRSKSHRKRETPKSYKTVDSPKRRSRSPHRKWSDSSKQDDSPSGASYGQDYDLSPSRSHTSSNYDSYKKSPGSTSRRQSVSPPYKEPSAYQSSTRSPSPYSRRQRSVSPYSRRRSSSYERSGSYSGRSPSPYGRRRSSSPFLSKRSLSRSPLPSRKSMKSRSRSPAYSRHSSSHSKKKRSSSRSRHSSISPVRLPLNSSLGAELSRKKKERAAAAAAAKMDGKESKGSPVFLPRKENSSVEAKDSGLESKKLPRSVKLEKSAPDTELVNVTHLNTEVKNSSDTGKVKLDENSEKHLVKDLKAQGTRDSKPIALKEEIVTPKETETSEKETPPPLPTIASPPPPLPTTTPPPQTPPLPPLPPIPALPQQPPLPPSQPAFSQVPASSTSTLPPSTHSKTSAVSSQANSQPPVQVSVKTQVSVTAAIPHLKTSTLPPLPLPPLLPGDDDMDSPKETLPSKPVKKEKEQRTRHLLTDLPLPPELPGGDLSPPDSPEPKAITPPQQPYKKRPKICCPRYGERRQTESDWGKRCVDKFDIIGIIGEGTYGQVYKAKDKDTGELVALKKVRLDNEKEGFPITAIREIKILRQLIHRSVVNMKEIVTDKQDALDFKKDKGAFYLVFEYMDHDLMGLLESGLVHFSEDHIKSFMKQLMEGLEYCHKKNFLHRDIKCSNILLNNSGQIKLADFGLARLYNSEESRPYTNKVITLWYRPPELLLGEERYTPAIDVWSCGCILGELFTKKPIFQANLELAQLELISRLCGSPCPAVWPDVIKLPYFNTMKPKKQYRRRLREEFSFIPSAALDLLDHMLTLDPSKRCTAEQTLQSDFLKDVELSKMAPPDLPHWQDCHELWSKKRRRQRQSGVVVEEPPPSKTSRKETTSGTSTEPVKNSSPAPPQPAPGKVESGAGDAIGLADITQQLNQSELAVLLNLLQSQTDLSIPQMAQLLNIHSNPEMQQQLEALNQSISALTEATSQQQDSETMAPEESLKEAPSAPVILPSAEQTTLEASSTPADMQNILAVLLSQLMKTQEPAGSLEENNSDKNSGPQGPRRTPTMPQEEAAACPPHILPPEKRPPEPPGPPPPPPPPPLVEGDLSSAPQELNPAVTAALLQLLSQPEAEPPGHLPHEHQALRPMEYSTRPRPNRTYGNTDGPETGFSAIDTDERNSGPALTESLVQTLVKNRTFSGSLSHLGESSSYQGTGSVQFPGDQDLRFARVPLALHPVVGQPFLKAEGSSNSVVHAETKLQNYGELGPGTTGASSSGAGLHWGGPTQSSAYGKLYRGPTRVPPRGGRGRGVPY", "test": "Inhibition of human recombinant CRK7 at 15 nM in presence of ATP by radiometric assay relative to control"}},
  "data": [
    {"smiles": "O=C(N[C@@H](C1CC1)C(F)(F)F)c1cc(-c2cnn3cc(-c4ccc(F)cc4)cnc23)cs1", "values": [
      {"measurement": "inhibition", "setting": "[1]", "value": 0, "unit": "%"}
    ]},
    {"smiles": "CNC(=O)c1ccccc1Oc1nc(Nc2cc(OC)c(OC)c(OC)c2)ncc1Br", "values": [
      {"measurement": "fold change (FC)", "setting": "[2]", "value": 0}
    ]},
    {"smiles": "CC(C)[C@H](NC(=O)c1cc(-c2cnn3cc(-c4ccc(OCCN5CCCCC5)cc4)cnc23)cs1)C(F)(F)F", "values": [
      {"measurement": "inhibition", "setting": "[3]", "value": 0, "unit": "%"},
      {"measurement": "inhibition", "setting": "[4]", "value": 5, "unit": "%"},
      {"measurement": "inhibition", "setting": "[5]", "value": 5, "unit": "%"},
      {"measurement": "inhibition", "setting": "[6]", "value": 4, "unit": "%"}
    ]}
  ]
}
